system: Lung; test: Biodistribution in ICR mouse lung at 5 to 10 uCi, iv after 2 mins; type: ADME, organism-based; conditions: in vivo

Row | Drug uptake [% ID/g] | SMILES
1 | 6.85 | CNc1ccc(/C=C/c2cnc(OCCOCCOCCF)c([125I])c2)cc1

system: Thyroid gland; test: Biodistribution in ICR mouse thyroid at 5 to 10 uCi, iv after 1 hr; type: ADME, organism-based; conditions: in vivo

Row | Drug uptake [% ID/g] | SMILES
2 | 38.1 | CNc1ccc(/C=C/c2cnc(OCCOCCOCCF)c([125I])c2)cc1

system: Kidney; test: Biodistribution in ICR mouse kidney at 5 to 10 uCi, iv after 2 hrs; type: ADME, organism-based; conditions: in vivo

Row | Drug uptake [% ID/g] | SMILES
3 | 1.86 | CNc1ccc(/C=C/c2cnc(OCCOCCOCCF)c([125I])c2)cc1

system: Heart; test: Biodistribution in ICR mouse heart at 5 to 10 uCi, iv after 2 mins; type: ADME, organism-based; conditions: in vivo

Row | Drug uptake [% ID/g] | SMILES
4 | 9.85 | CNc1ccc(/C=C/c2cnc(OCCOCCOCCF)c([125I])c2)cc1

system: Heart; test: Biodistribution in ICR mouse heart at 5 to 10 uCi, iv after 1 hr; type: ADME, organism-based; conditions: in vivo

Row | Drug uptake [% ID/g] | SMILES
5 | 1.75 | CNc1ccc(/C=C/c2cnc(OCCOCCOCCF)c([125I])c2)cc1

system: Thyroid gland; test: Biodistribution in ICR mouse thyroid at 5 to 10 uCi, iv after 2 hrs; type: ADME, organism-based; conditions: in vivo

Row | Drug uptake [% ID/g] | SMILES
6 | 215 | CNc1ccc(/C=C/c2cnc(OCCOCCOCCF)c([125I])c2)cc1

system: Spleen; test: Biodistribution in ICR mouse spleen at 5 to 10 uCi, iv after 2 hrs; type: ADME, organism-based; conditions: in vivo

Row | Drug uptake [% ID/g] | SMILES
7 | 1.27 | CNc1ccc(/C=C/c2cnc(OCCOCCOCCF)c([125I])c2)cc1

system: Spleen; test: Biodistribution in ICR mouse spleen at 5 to 10 uCi, iv after 1 hr; type: ADME, organism-based; conditions: in vivo

Row | Drug uptake [% ID/g] | SMILES
8 | 1.75 | CNc1ccc(/C=C/c2cnc(OCCOCCOCCF)c([125I])c2)cc1

system: Liver; test: Biodistribution in ICR mouse liver at 5 to 10 uCi, iv after 2 mins; type: ADME, organism-based; conditions: in vivo

Row | Drug uptake [% ID/g] | SMILES
9 | 26.2 | CNc1ccc(/C=C/c2cnc(OCCOCCOCCF)c([125I])c2)cc1

system: Brain; test: Biodistribution in ICR mouse brain at 5 to 10 uCi, iv after 30 mins; type: ADME, organism-based; conditions: in vivo, 0.5 h

Row | Drug uptake [% ID/g] | SMILES
10 | 1.23 | CNc1ccc(/C=C/c2cnc(OCCOCCOCCF)c([125I])c2)cc1

system: Heart; test: Biodistribution in ICR mouse heart at 5 to 10 uCi, iv after 2 hrs; type: ADME, organism-based; conditions: in vivo

Row | Drug uptake [% ID/g] | SMILES
11 | 1.22 | CNc1ccc(/C=C/c2cnc(OCCOCCOCCF)c([125I])c2)cc1

system: Blood; test: Biodistribution in ICR mouse blood at 5 to 10 uCi, iv after 2 mins; type: ADME, organism-based; conditions: in vivo

Row | Drug uptake [% ID/g] | SMILES
12 | 4.37 | CNc1ccc(/C=C/c2cnc(OCCOCCOCCF)c([125I])c2)cc1

system: Liver; test: Biodistribution in ICR mouse liver at 5 to 10 uCi, iv after 30 mins; type: ADME, organism-based; conditions: in vivo, 0.5 h

Row | Drug uptake [% ID/g] | SMILES
13 | 11.5 | CNc1ccc(/C=C/c2cnc(OCCOCCOCCF)c([125I])c2)cc1

system: Spleen; test: Biodistribution in ICR mouse spleen at 5 to 10 uCi, iv after 30 mins; type: ADME, organism-based; conditions: in vivo, 0.5 h

Row | Drug uptake [% ID/g] | SMILES
14 | 2.49 | CNc1ccc(/C=C/c2cnc(OCCOCCOCCF)c([125I])c2)cc1

system: Lung; test: Biodistribution in ICR mouse lung at 5 to 10 uCi, iv after 30 mins; type: ADME, organism-based; conditions: in vivo, 0.5 h

Row | Drug uptake [% ID/g] | SMILES
15 | 3.01 | CNc1ccc(/C=C/c2cnc(OCCOCCOCCF)c([125I])c2)cc1

system: Lung; test: Biodistribution in ICR mouse lung at 5 to 10 uCi, iv after 2 hrs; type: ADME, organism-based; conditions: in vivo

Row | Drug uptake [% ID/g] | SMILES
16 | 1.85 | CNc1ccc(/C=C/c2cnc(OCCOCCOCCF)c([125I])c2)cc1

system: Heart; test: Biodistribution in ICR mouse heart at 5 to 10 uCi, iv after 30 mins; type: ADME, organism-based; conditions: in vivo, 0.5 h

Row | Drug uptake [% ID/g] | SMILES
17 | 2.54 | CNc1ccc(/C=C/c2cnc(OCCOCCOCCF)c([125I])c2)cc1

system: Zone of skin; test: Biodistribution in ICR mouse skin at 5 to 10 uCi, iv after 1 hr; type: ADME, organism-based; conditions: in vivo

Row | Drug uptake [% ID/g] | SMILES
18 | 2.46 | CNc1ccc(/C=C/c2cnc(OCCOCCOCCF)c([125I])c2)cc1

system: Muscle tissue; test: Biodistribution in ICR mouse muscle at 5 to 10 uCi, iv after 1 hr; type: ADME, organism-based; conditions: in vivo

Row | Drug uptake [% ID/g] | SMILES
19 | 0.85 | CNc1ccc(/C=C/c2cnc(OCCOCCOCCF)c([125I])c2)cc1

system: Kidney; test: Biodistribution in ICR mouse kidney at 5 to 10 uCi, iv after 2 mins; type: ADME, organism-based; conditions: in vivo

Row | Drug uptake [% ID/g] | SMILES
20 | 9.03 | CNc1ccc(/C=C/c2cnc(OCCOCCOCCF)c([125I])c2)cc1

system: not listed separately; test: Partition coefficient, log P at pH 7.4; type: physicochemical; conditions: octanol/water

Row | logD | SMILES
21 | 2.2 | CNc1ccc(/C=C/c2cnc(OCCOCCOCCF)c([125I])c2)cc1

system: Thyroid gland; test: Biodistribution in ICR mouse thyroid at 5 to 10 uCi, iv after 30 mins; type: ADME, organism-based; conditions: in vivo, 0.5 h

Row | Drug uptake [% ID/g] | SMILES
22 | 24.1 | CNc1ccc(/C=C/c2cnc(OCCOCCOCCF)c([125I])c2)cc1

system: Brain; test: Biodistribution in ICR mouse brain at 5 to 10 uCi, iv after 2 mins; type: ADME, organism-based; conditions: in vivo

Row | Drug uptake [% ID/g] | SMILES
23 | 6.22 | CNc1ccc(/C=C/c2cnc(OCCOCCOCCF)c([125I])c2)cc1

system: Zone of skin; test: Biodistribution in ICR mouse skin at 5 to 10 uCi, iv after 2 hrs; type: ADME, organism-based; conditions: in vivo

Row | Drug uptake [% ID/g] | SMILES
24 | 1.32 | CNc1ccc(/C=C/c2cnc(OCCOCCOCCF)c([125I])c2)cc1

system: Muscle tissue; test: Biodistribution in ICR mouse muscle at 5 to 10 uCi, iv after 2 hrs; type: ADME, organism-based; conditions: in vivo

Row | Drug uptake [% ID/g] | SMILES
25 | 0.44 | CNc1ccc(/C=C/c2cnc(OCCOCCOCCF)c([125I])c2)cc1

system: Brain; test: Biodistribution in ICR mouse brain at 5 to 10 uCi, iv after 1 hr; type: ADME, organism-based; conditions: in vivo

Row | Drug uptake [% ID/g] | SMILES
26 | 0.62 | CNc1ccc(/C=C/c2cnc(OCCOCCOCCF)c([125I])c2)cc1

system: Thyroid gland; test: Biodistribution in ICR mouse thyroid at 5 to 10 uCi, iv after 2 mins; type: ADME, organism-based; conditions: in vivo

Row | Drug uptake [% ID/g] | SMILES
27 | 5.74 | CNc1ccc(/C=C/c2cnc(OCCOCCOCCF)c([125I])c2)cc1

system: Spleen; test: Biodistribution in ICR mouse spleen at 5 to 10 uCi, iv after 2 mins; type: ADME, organism-based; conditions: in vivo

Row | Drug uptake [% ID/g] | SMILES
28 | 4.41 | CNc1ccc(/C=C/c2cnc(OCCOCCOCCF)c([125I])c2)cc1

system: Blood; test: Biodistribution in ICR mouse blood at 5 to 10 uCi, iv after 30 mins; type: ADME, organism-based; conditions: in vivo, 0.5 h

Row | Drug uptake [% ID/g] | SMILES
29 | 3.83 | CNc1ccc(/C=C/c2cnc(OCCOCCOCCF)c([125I])c2)cc1

system: Blood; test: Biodistribution in ICR mouse blood at 5 to 10 uCi, iv after 1 hr; type: ADME, organism-based; conditions: in vivo

Row | Drug uptake [% ID/g] | SMILES
30 | 2.88 | CNc1ccc(/C=C/c2cnc(OCCOCCOCCF)c([125I])c2)cc1

system: Liver; test: Biodistribution in ICR mouse liver at 5 to 10 uCi, iv after 1 hr; type: ADME, organism-based; conditions: in vivo

Row | Drug uptake [% ID/g] | SMILES
31 | 7.7 | CNc1ccc(/C=C/c2cnc(OCCOCCOCCF)c([125I])c2)cc1

system: Zone of skin; test: Biodistribution in ICR mouse skin at 5 to 10 uCi, iv after 2 mins; type: ADME, organism-based; conditions: in vivo

Row | Drug uptake [% ID/g] | SMILES
32 | 1.48 | CNc1ccc(/C=C/c2cnc(OCCOCCOCCF)c([125I])c2)cc1

system: Zone of skin; test: Biodistribution in ICR mouse skin at 5 to 10 uCi, iv after 30 mins; type: ADME, organism-based; conditions: in vivo, 0.5 h

Row | Drug uptake [% ID/g] | SMILES
33 | 2.95 | CNc1ccc(/C=C/c2cnc(OCCOCCOCCF)c([125I])c2)cc1

system: Brain; test: Biodistribution in ICR mouse brain at 5 to 10 uCi, iv after 2 hrs; type: ADME, organism-based; conditions: in vivo

Row | Drug uptake [% ID/g] | SMILES
34 | 0.26 | CNc1ccc(/C=C/c2cnc(OCCOCCOCCF)c([125I])c2)cc1

system: Kidney; test: Biodistribution in ICR mouse kidney at 5 to 10 uCi, iv after 1 hr; type: ADME, organism-based; conditions: in vivo

Row | Drug uptake [% ID/g] | SMILES
35 | 2.81 | CNc1ccc(/C=C/c2cnc(OCCOCCOCCF)c([125I])c2)cc1

system: Muscle tissue; test: Biodistribution in ICR mouse muscle at 5 to 10 uCi, iv after 2 mins; type: ADME, organism-based; conditions: in vivo

Row | Drug uptake [% ID/g] | SMILES
36 | 1.04 | CNc1ccc(/C=C/c2cnc(OCCOCCOCCF)c([125I])c2)cc1

system: Blood; test: Biodistribution in ICR mouse blood at 5 to 10 uCi, iv after 2 hrs; type: ADME, organism-based; conditions: in vivo

Row | Drug uptake [% ID/g] | SMILES
37 | 2.21 | CNc1ccc(/C=C/c2cnc(OCCOCCOCCF)c([125I])c2)cc1

system: Brain; test: Ratio of drug distribution in brain after 2 mins to 30 mins in ICR mouse at 5 to 10 uCi, iv; type: ADME, organism-based; conditions: in vivo

Row | Ratio | SMILES
38 | 5.05 | CNc1ccc(/C=C/c2cnc(OCCOCCOCCF)c([125I])c2)cc1

system: Kidney; test: Biodistribution in ICR mouse kidney at 5 to 10 uCi, iv after 30 mins; type: ADME, organism-based; conditions: in vivo, 0.5 h

Row | Drug uptake [% ID/g] | SMILES
39 | 3.4 | CNc1ccc(/C=C/c2cnc(OCCOCCOCCF)c([125I])c2)cc1

system: Liver; test: Biodistribution in ICR mouse liver at 5 to 10 uCi, iv after 2 hrs; type: ADME, organism-based; conditions: in vivo

Row | Drug uptake [% ID/g] | SMILES
40 | 6.25 | CNc1ccc(/C=C/c2cnc(OCCOCCOCCF)c([125I])c2)cc1

system: Muscle tissue; test: Biodistribution in ICR mouse muscle at 5 to 10 uCi, iv after 30 mins; type: ADME, organism-based; conditions: in vivo, 0.5 h

Row | Drug uptake [% ID/g] | SMILES
41 | 1.11 | CNc1ccc(/C=C/c2cnc(OCCOCCOCCF)c([125I])c2)cc1

system: Lung; test: Biodistribution in ICR mouse lung at 5 to 10 uCi, iv after 1 hr; type: ADME, organism-based; conditions: in vivo

Row | Drug uptake [% ID/g] | SMILES
42 | 2.37 | CNc1ccc(/C=C/c2cnc(OCCOCCOCCF)c([125I])c2)cc1

— ChEMBL document CHEMBL1147144, “Novel styrylpyridines as probes for SPECT imaging of amyloid plaques” (J Med Chem, 2007)
